# Results taken from ChEMBL document CHEMBL5726561, “Compounds and pharmaceutical compositions thereof for the treatment of inflammatory disorders” (2017).
# Target: Autotaxin (Homo sapiens, UniProt Q13822)
# Assay: Biochemical Assay: Compound IC50 values are determined in a fluorescent hENPP2 (UniProtKB/SwissProt Sequence ref Q13822) biochemical assay using the fluorogenic autotaxin substrate FS-3 as substrate. FS-3 is a doubly labeled analog of LPC wherein the fluorophore is quenched through intramolecular energy transfer. Without hENPP2, the emission of the probe is quenched. If the substrate is hydrolyzed by hENPP2, the emission of the probe is not quenched anymore resulting in a fluorescence increase. Inhibition of hENPP2 by compounds will result in a decrease of the signal. 10 uL of a dilution series of compound, starting from 20 uM highest concentration, dilution, is added to the wells. hENPP2 is used at a final concentration of 0.4 ug/mL or 0.64 ug/mL (it will be appreciated by the skilled person that the potency read out is independent of the enzyme concentration). The enzyme is diluted in 50 mM Tris-HCl pH 8.0, 250 mM NaCl, 5 mM KCl, 1 mM MgCl2, 1 mM CaCl2, 0.1% fatty acid free BSA in a total volume of 20 uL. Enzyme mixture is added to compounds and the resulting mixture is incubated for 30 min at room temperature under shaking. The reaction is started by the addition of 20 uL of 0.75 uM FS-3 diluted in the same buffer as described above and the mixture is incubated at 30° C. for 30 min. Fluorescence is read on the Envision (Excitation 485 nm, emission 520 nm).
compound,measurement,value
CCc1nc2ccc(N3CCC(NC(=O)C4CCOCC4)CC3)nn2c1N(C)c1nc(-c2ccc(F)cc2)cs1,IC50,< 1000 nM
